Laboratory results: PMC12345137 (mBio, 2025)
Like-named read-outs stand apart in the source and are kept apart here. Positions of bridges follow the written chain, without caps; N, C: chain ends. Residues, ends and D or L forms follow the SMILES beside them.

Assays:
[1] = target: T1, SA AgrC-I (Staphylococcus aureus, UniProt O07911); conditions: 100 nM cognate AIP; ± SEM; -b = no inhibition recorded at the highest AIP concentration tested; determined previously; ref (1); read-out: IC50, SA AgrC-I, b-lactamase assay; cited from earlier work
T1 sequence (O07911 entry or part of it): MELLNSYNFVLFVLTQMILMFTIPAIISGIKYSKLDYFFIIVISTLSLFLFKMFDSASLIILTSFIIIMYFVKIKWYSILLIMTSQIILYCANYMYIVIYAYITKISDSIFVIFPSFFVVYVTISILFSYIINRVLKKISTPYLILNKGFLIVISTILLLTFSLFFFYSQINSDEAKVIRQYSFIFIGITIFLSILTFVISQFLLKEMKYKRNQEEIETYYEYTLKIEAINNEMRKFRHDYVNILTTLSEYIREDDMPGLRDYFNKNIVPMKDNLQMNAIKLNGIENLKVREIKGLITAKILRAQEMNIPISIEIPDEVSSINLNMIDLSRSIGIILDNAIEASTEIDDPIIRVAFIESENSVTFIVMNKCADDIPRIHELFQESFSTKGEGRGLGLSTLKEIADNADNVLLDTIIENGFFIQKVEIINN

[2] = target: S. aureus agr-III (Staphylococcus aureus, UniProt O33590); assay: cell-based; conditions: fluorescent reporter strain; peptides tested at 1000, 50, 2.5, 0.125 nM or in dose-response
S. aureus agr-III, sequence (O33590 entry or part of it): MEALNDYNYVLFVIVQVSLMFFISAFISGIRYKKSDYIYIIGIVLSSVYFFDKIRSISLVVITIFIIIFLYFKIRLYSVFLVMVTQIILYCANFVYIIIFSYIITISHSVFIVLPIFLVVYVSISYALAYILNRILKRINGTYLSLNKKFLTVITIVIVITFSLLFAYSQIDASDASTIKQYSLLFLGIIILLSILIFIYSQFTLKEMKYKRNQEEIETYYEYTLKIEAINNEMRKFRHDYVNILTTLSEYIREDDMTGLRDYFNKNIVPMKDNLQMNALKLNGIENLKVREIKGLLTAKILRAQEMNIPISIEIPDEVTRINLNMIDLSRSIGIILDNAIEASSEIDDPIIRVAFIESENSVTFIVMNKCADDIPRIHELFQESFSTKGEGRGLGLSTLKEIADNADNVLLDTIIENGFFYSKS
Method: (§1) Peptides were evaluated for the ability to interfere with agr-mediated quorum sensing in S. aureus (AH1677, AH430, AH1747, and AH1872 for agr-I–IV, respectively) ([40]) using reporter strains expressing yellow fluorescent protein (YFP) upon agr activation. Interference with agr-mediated quorum sensing in S. epidermidis (AH3408, AH3623, and AH3409 for agr-I–III, respectively) ([45]), and S. lugdunensis (AH4031 for agr-I) ([37]) was evaluated using reporter strains expressing superfolder green fluorescent protein (sGFP) upon agr activation. Overnight cultures of the reporter strains were grown in TSB medium containing chloramphenicol (CAM, 10 μg/mL for S. aureus) or erythromycin (ERM, 10 μg/mL of S. epidermidis and S. lugdunensis) and diluted 1:100 in fresh TSB medium containing the same antibiotic. Assays were performed in sterile black 96-well plates with a clear bottom. […] DMSO stock solutions of peptides (1 mM) were diluted in TSB media and added (15 μL) in technical triplicate to the 96-well plate, followed by diluted bacterial overnight cultures (135 μL). Control wells for 100% agr activity were wells replacing the peptide solution with TSB medium (15 μL). […] Wells containing 150 μL TSB medium were used to measure background fluorescence. The 96-well plates were incubated in a humidified incubator at 37°C shaking at 1,000 rpm for 22–24 h and fluorescence (for GFP: excitation 479 nm, emission 520 nm; for YFP: excitation 500 nm, emission 541 nm; automatic gain), and OD600 values were subsequently measured using a plate reader. Background fluorescence was subtracted from all wells and further normalized to the corresponding OD600 value of the respective wells. The average fluorescence of control wells was used as a relative measure for 100% activation of the agr-circuit, and bar graphs were generated using GraphPad Prism 10.4 software. All assays were performed in at least a biological duplicate.
(§2) Overnight cultures of the reporter strains were grown in TSB medium containing chloramphenicol (CAM, 10 μg/mL for S. aureus) or erythromycin (ERM, 10 μg/mL of S. epidermidis and S. lugdunensis) and diluted 1:100 in fresh TSB medium containing the same antibiotic. Assays were performed in sterile black 96-well plates with clear bottoms. Peptide solutions (15 μL) in 1:5 serial dilutions from DMSO stock solutions (1 mM) in TSB medium were added to the 96-well plate in technical duplicate followed by diluted bacterial overnight cultures (135 μL). Control wells for 100% agr activity were wells replacing the peptide solution with TSB medium (15 μL). Wells containing 150 μL TSB medium were used to measure background fluorescence. The 96-well plates were incubated in a humidified incubator at 37°C shaking at 1,000 rpm for 22–24 h and fluorescence (for GFP: excitation 479 nm, emission 520 nm; for YFP: excitation 500 nm, emission 541 nm; automatic gain), and OD600 values were subsequently measured using a plate reader. Background fluorescence was subtracted from all wells and further normalized to the corresponding OD600 value of the respective wells. The average fluorescence of control wells was used as a relative measure for 100% activation of the agr-circuit. Relative agr activity was plotted to obtain IC50 values by non-linear regression with variable slope using GraphPad Prism 10.4 software. All assays were performed in biological triplicate.

[3] = target: S. aureus agr-IV (Staphylococcus aureus, UniProt Q309Z2); assay: cell-based; assay type: cell-based; conditions: fluorescent reporter strain; peptides tested at 1000, 50, 2.5, 0.125 nM or in dose-response
S. aureus agr-IV, sequence (Q309Z2 entry or part of it): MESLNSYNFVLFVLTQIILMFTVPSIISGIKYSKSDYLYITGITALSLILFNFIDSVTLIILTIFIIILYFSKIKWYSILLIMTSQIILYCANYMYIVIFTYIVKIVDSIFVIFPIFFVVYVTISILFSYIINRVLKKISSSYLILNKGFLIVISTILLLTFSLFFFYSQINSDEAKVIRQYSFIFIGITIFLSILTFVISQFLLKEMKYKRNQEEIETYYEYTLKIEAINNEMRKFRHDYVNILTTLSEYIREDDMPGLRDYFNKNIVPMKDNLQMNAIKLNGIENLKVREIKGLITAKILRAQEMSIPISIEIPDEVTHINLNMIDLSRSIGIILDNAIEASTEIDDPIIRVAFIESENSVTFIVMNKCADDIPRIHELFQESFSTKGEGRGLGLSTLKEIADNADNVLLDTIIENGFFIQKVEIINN
Method: as §1, §2

[4] = tested on: S. aureus (SA) agr-IV; conditions: fluorescence, cited from earlier work
[5] = tested on: S. aureus (SA) agr-I; conditions: fluorescence, cited from earlier work
[6] = tested on: S. epidermidis (SE) agr-II; conditions: fluorescence; ref (13); cited from earlier work
[7] = tested on: S. aureus (SA) agr-III; conditions: fluorescence, cited from earlier work
[8] = target: SA AgrC-II (Staphylococcus aureus, UniProt O33587); assay: β-Lactamase assay, reporter strain RN10829 (P2-agrA:P3-blaZ) with pagrC-II; assay type: cell-based
SA AgrC-II, sequence (O33587 entry or part of it): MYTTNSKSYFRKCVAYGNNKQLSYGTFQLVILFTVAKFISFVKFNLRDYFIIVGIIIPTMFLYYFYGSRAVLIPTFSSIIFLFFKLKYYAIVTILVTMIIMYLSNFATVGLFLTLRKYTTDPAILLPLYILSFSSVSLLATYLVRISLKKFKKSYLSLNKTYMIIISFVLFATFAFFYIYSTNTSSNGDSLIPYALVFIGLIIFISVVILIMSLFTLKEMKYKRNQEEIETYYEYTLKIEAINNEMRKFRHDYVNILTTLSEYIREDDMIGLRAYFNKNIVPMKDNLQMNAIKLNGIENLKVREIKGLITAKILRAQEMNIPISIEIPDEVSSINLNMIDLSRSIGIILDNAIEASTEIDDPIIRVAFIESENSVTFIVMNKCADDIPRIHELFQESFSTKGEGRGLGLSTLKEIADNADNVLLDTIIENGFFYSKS
From the text: (§3) The β-lactamase reporter strain RN10829 (P2-agrA:P3-blaZ) ([62]), with pagrC-I ([63]), pagrC-II, pagrC-III, or pagrC-IV ([11]), substituting the native agr locus with a chromosomal integration of P2-agrA and P3-blaZ and a plasmid from which a wild-type variant of the corresponding AgrC is expressed, was used to assess inhibition and activation of the AgrC receptor via β-lactamase activity in response to varying concentrations of the QS modulating peptides. Overnight cultures of the reporter strains in TSB medium were diluted 1:250 in fresh TSB medium and grown to OD600 = 0.35–0.40 (early exponential phase) at 37°C. Peptide solutions (10 μL) in 1:10 serial dilutions from DMSO stock solutions (1 mM) in TSB medium (final concentrations = 10 μM–10 pM) were added to each well of a clear 96-well plate as well as solutions (10 μL) of cognate AIP (final concentration = 100 nM) in TSB medium followed by 80 μL of bacterial cells. Control wells for 100% β-lactamase activity were wells replacing peptide solution with TSB media (10 μL), and control wells for 0% β-lactamase activity were wells replacing both peptide and cognate AIP solutions with TSB medium (20 μL). The 96-well plates were incubated at 37°C shaking at 200 rpm for 1 h and immediately frozen down at −80°C to minimize growth during nitrocefin treatment. Next, the 96-well plates were thawed, and OD600 values were determined using a plate reader followed by the addition of 50 μL of nitrocefin solution to the wells (final concentration = 33.3 μg/mL). β-Lactamase activity was monitored at OD486 every 20 s for 10 min at 37°C using a plate-reader. Linear nitrocefin conversion rates were plotted to obtain IC50 values by non-linear regression with variable slope using GraphPad Prism 10.4 software. Assays were performed at least as duplicate determinations in biological triplicate.

[9] = target: T1, SA AgrC-I; assay: β-Lactamase assay, reporter strain RN10829 (P2-agrA:P3-blaZ) with pagrC-I; assay type: cell-based
From the text: as §3, with “Control wells for 100% β-lactamase activity were wells replacing peptide solution with TSB media (10 μL), and control wells for 0% β-lactamase activity were wells replacing both peptide and cognate AIP solutions with TSB medium (20 μL).” left out

[10] = target: SA AgrC-III (Staphylococcus aureus, UniProt O33590); assay: β-Lactamase assay, reporter strain RN10829 (P2-agrA:P3-blaZ) with pagrC-III; assay type: cell-based
SA AgrC-III, sequence (O33590 entry or part of it): as the sequence (O33590 entry or part of it) above
From the text: as §3

[11] = target: SA AgrC-IV (Staphylococcus aureus, UniProt Q309Z2); assay: β-Lactamase assay, reporter strain RN10829 (P2-agrA:P3-blaZ) with pagrC-IV; assay type: cell-based; conditions: 100 nM cognate AIP; ± SEM; -b = no inhibition recorded at the highest AIP concentration tested; -a = only partial inhibition observed; this study (curves in Fig. S22)
SA AgrC-IV, sequence (Q309Z2 entry or part of it): as the sequence (Q309Z2 entry or part of it) above
From the text: as §3

[12] = tested on: S. epidermidis (SE) agr-III; conditions: fluorescence; ref (13); cited from earlier work
[13] = target: S. epidermidis agr-I (Staphylococcus epidermidis, UniProt Q5HMY3); assay: cell-based; assay type: cell-based; conditions: fluorescent reporter strain; peptides tested at 1000, 50, 2.5, 0.125 nM or in dose-response
S. epidermidis agr-I, sequence (Q5HMY3 entry or part of it): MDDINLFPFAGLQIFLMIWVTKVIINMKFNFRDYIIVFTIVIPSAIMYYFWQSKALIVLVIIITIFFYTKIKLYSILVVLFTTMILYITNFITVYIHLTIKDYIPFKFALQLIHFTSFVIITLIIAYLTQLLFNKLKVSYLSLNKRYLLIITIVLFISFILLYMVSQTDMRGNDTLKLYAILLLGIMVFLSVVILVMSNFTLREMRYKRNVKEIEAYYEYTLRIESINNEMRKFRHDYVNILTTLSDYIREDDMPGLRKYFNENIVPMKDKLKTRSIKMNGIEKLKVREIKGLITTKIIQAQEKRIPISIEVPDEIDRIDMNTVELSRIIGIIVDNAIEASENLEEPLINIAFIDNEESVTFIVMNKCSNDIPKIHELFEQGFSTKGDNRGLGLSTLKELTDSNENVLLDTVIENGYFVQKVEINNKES
Method: as §1, with “μL).” for “μL). Control wells for 100% agr activity were wells replacing the peptide solution with TSB medium (15 μL).”
as §2, with “Control wells for 100% agr activity were wells replacing the peptide solution with TSB medium (15 μL).” left out

[14] = tested on: S. aureus (SA) agr-II; conditions: fluorescence, cited from earlier work

In the case of “S. saprophyticus AIP-I (INPCFGYT; not fully specified; cyclic: thiolactone between Cys4 side-chain thiol and C-terminal Thr8 carboxyl; free N-terminus) [compound 19]”, the IC50 [1] is listed as 360 ± 30 nM.
With S. simulans AIP-II P4A [compound 39] the “QS interaction in words (inhibition / activation), S. aureus agr-III” value [2] was “activator” and the “QS interaction in words (inhibition / activation), S. aureus agr-IV” value [3] was “activator”.
In the case of CC(C)[C@H](NC(=O)[C@H](CC(N)=O)NC(=O)[C@H](Cc1ccc(O)cc1)NC(=O)[C@@H](N)CO)C(=O)N[C@H]1CSC(=O)[C@H](Cc2ccccc2)NC(=O)[C@H](Cc2ccc(O)cc2)NC(=O)CNC(=O)CNC1=O [compound 10, S. hominis AIP-I] (H-SYNVCGGYF; thioester 5-C; N-terminus assumed), the “inhibition by supernatant, SA agr-IV” value ([4]; by supernatant, ref (12)) is given as “no inhibition”, the IC50 ([4]; ref (13)) is given as 2910 nM and the IC50 ([5]; ref (12)) is given as 0.624 nM. For the same compound, the IC50 ([5]; ref (13)) was 13 nM, the IC50 [6] was 34 nM and the “inhibition by supernatant, SA agr-III” value ([7]; by supernatant, ref (12)) was ~ 80%. For the same compound, the IC50 ([7]; ref (13)) was 5 nM, the IC50 [8] was greater than 1000 nM and the IC50 [9] was 224 ± 37 nM. The IC50 [10] was 338 ± 83 nM, the “IC50, SA AgrC-IV, b-lactamase assay” value [11] was “-b” and the IC50 [12] was 16 nM. For the same compound, the “QS interaction in words (inhibition / activation), S. epidermidis agr-I” value [13] was “activates”, the “inhibition by supernatant, SA agr-II” value ([14]; by supernatant, ref (12)) was ~ 70% and the IC50 ([14]; ref (13)) was 31 nM.
In the case of “S. lugdunensis AIP-II (DMCNGYF; not fully specified; cyclic: thiolactone between Cys3 side-chain thiol and C-terminal Phe7 carboxyl; free N-terminus) [compound 9]”, the IC50 [1] is given as greater than 1000 nM.
